Measured values reported in ChEMBL document CHEMBL3217673, “Synthesis of cyanine dyes and investigation of their in vitro antiprotozoal activities” (Medchemcomm, 2012).

Assays:
Plasmodium falciparum = experiment: Antiprotozoal activity against chloroquine and pyrimethamine-resistant Plasmodium falciparum K1; assay type: functional, organism-based
[1] = Selectivity index, ratio of IC50 for rat L6 cells to IC50 for chloroquine and pyrimethamine-resistant Plasmodium falciparum K1; assay type: toxicity, cell-based; details: read-out: Ratio IC50
Trypanosoma cruzi = experiment: Antiprotozoal activity against Trypanosoma cruzi Tulahuen C2C4; assay type: functional, organism-based
[2] = Selectivity index, ratio of IC50 for rat L6 cells to IC50 for Trypanosoma cruzi Tulahuen C2C4; assay type: toxicity, cell-based; details: read-out: Ratio IC50
[3] = test system: Trypanosoma brucei rhodesiense; experiment: Antiprotozoal activity against Trypanosoma brucei rhodesiense STIB900; assay type: functional, organism-based
[4] = Selectivity index, ratio of IC50 for rat L6 cells to IC50 for Trypanosoma brucei rhodesiense STIB900; assay type: toxicity, cell-based; details: read-out: Ratio IC50
Leishmania donovani = experiment: Antiprotozoal activity against Leishmania donovani MHOMET-67/L82; assay type: functional, organism-based
[5] = Selectivity index, ratio of IC50 for rat L6 cells to IC50 for Leishmania donovani MHOMET-67/L82; assay type: toxicity, cell-based; details: read-out: Ratio IC50
L6 = experiment: Cytotoxicity against rat L6 cells; assay type: cell-based

CCN1/C(=C/C=C/c2oc3ccc(Cl)cc3[n+]2C)Sc2ccc(F)cc21
IC50 (Plasmodium falciparum): 14 nM | selectivity ratio [1]: 218 | IC50 (Trypanosoma cruzi): 853 nM | selectivity ratio [2]: 3.6 | IC50 [3]: 850 nM | selectivity ratio [4]: 3.6 | IC50 (Leishmania donovani): 106 nM | selectivity ratio [5]: 29.1 | IC50 (L6): 3100 nM

CN1/C(=C/C=C/c2oc3ccccc3[n+]2C)Sc2ccc(F)cc21
IC50 (Plasmodium falciparum): 5 nM | selectivity ratio [1]: 201 | IC50 (Trypanosoma cruzi): 186 nM | selectivity ratio [2]: 5.7 | IC50 [3]: 867 nM | selectivity ratio [4]: 1.2 | IC50 (Leishmania donovani): 67 nM | selectivity ratio [5]: 16.1 | IC50 (L6): 1070 nM

CCN1/C(=C/C=C/c2oc3ccccc3[n+]2C)Sc2ccc(F)cc21
IC50 (Plasmodium falciparum): 3 nM | selectivity ratio [1]: 586 | IC50 (Trypanosoma cruzi): 262 nM | selectivity ratio [2]: 5.7 | IC50 [3]: 841 nM | selectivity ratio [4]: 1.8 | IC50 (Leishmania donovani): 54 nM | selectivity ratio [5]: 27.9 | IC50 (L6): 1510 nM

CN1/C(=C/C=C/c2sc3ccccc3[n+]2C)Sc2ccccc21
IC50 (Plasmodium falciparum): 3 nM | selectivity ratio [1]: 126 | IC50 (Trypanosoma cruzi): 5 nM | selectivity ratio [2]: 63 | IC50 [3]: 115 nM | selectivity ratio [4]: 2.9 | IC50 (Leishmania donovani): 5 nM | selectivity ratio [5]: 63 | IC50 (L6): 338 nM

CN1/C(=C/C=C/c2sc3ccccc3[n+]2C)Sc2ccc(Cl)cc21
IC50 (Plasmodium falciparum): 7 nM | selectivity ratio [1]: 45 | IC50 (Trypanosoma cruzi): 7 nM | selectivity ratio [2]: 45 | IC50 [3]: 64 nM | selectivity ratio [4]: 5.2 | IC50 (Leishmania donovani): 64 nM | selectivity ratio [5]: 5.2 | IC50 (L6): 331 nM

CN1/C(=C/C=C/c2sc3ccc(Cl)cc3[n+]2C)Sc2ccc(Cl)cc21
IC50 (Plasmodium falciparum): 2 nM | selectivity ratio [1]: 477 | IC50 (Trypanosoma cruzi): 7080 nM | selectivity ratio [2]: 0.2 | IC50 [3]: 18 nM | selectivity ratio [4]: 59.6 | IC50 (Leishmania donovani): 9 nM | selectivity ratio [5]: 119 | IC50 (L6): 1080 nM

CN1/C(=C/C=C/c2sc3ccccc3[n+]2C)Sc2ccc(F)cc21
IC50 (Plasmodium falciparum): 5 nM | selectivity ratio [1]: 94.5 | IC50 [3]: 394 nM | selectivity ratio [4]: 1.2 | IC50 (Leishmania donovani): 79 nM | selectivity ratio [5]: 6.1 | IC50 (L6): 483 nM

CCN1/C(=C/C=C/c2sc3ccccc3[n+]2C)Sc2ccc(F)cc21
IC50 (Plasmodium falciparum): 7 nM | selectivity ratio [1]: 32.3 | IC50 [3]: 452 nM | selectivity ratio [4]: 0.5 | IC50 (Leishmania donovani): 111 nM | selectivity ratio [5]: 2.2 | IC50 (L6): 240 nM

CN1/C(=C/C=C/c2sc3ccc(F)cc3[n+]2C)Sc2ccc(F)cc21
IC50 (Plasmodium falciparum): 2 nM | selectivity ratio [1]: 477 | IC50 (Trypanosoma cruzi): 2910 nM | selectivity ratio [2]: 0.2 | IC50 [3]: 262 nM | selectivity ratio [4]: 2.7 | IC50 (Leishmania donovani): 20 nM | selectivity ratio [5]: 35.8 | IC50 (L6): 699 nM

CCN1/C(=C/C=C/c2sc3ccc(F)cc3[n+]2CC)Sc2ccc(F)cc21
IC50 (Plasmodium falciparum): 2 nM | selectivity ratio [1]: 371 | IC50 (Trypanosoma cruzi): 1170 nM | selectivity ratio [2]: 0.7 | IC50 [3]: 769 nM | selectivity ratio [4]: 1.1 | IC50 (Leishmania donovani): 28 nM | selectivity ratio [5]: 30.9 | IC50 (L6): 849 nM

Cn1/c(=N/C=C/c2sc3ccccc3[n+]2C)sc2ccccc21
IC50 (Plasmodium falciparum): 8 nM | selectivity ratio [1]: 340 | IC50 (Trypanosoma cruzi): 16 nM | selectivity ratio [2]: 170 | IC50 [3]: 21 nM | selectivity ratio [4]: 128 | IC50 (Leishmania donovani): 11 nM | selectivity ratio [5]: 255 | IC50 (L6): 2730 nM

Cn1/c(=N/C=C/c2sc3ccc(Cl)cc3[n+]2C)sc2ccccc21
IC50 (Plasmodium falciparum): 5 nM | selectivity ratio [1]: 132 | IC50 (Trypanosoma cruzi): 509 nM | selectivity ratio [2]: 1.3 | IC50 [3]: 10 nM | selectivity ratio [4]: 66.3 | IC50 (Leishmania donovani): 7 nM | selectivity ratio [5]: 88.3 | IC50 (L6): 649 nM

Cn1/c(=N/C=C/c2sc3ccc(F)cc3[n+]2C)sc2ccccc21
IC50 (Plasmodium falciparum): 38 nM | selectivity ratio [1]: 153 | IC50 (Trypanosoma cruzi): 648 nM | selectivity ratio [2]: 9 | IC50 [3]: 370 nM | selectivity ratio [4]: 15.8 | IC50 (Leishmania donovani): 31 nM | selectivity ratio [5]: 191 | IC50 (L6): 5840 nM

Cn1/c(=N\N/C=C/c2sc3ccccc3[n+]2C)sc2ccccc21
IC50 (Plasmodium falciparum): 7020 nM | selectivity ratio [1]: 3 | IC50 (Trypanosoma cruzi): 12400 nM | selectivity ratio [2]: 1.7 | IC50 [3]: 3830 nM | selectivity ratio [4]: 5.5 | IC50 (Leishmania donovani): 13100 nM | selectivity ratio [5]: 1.6 | IC50 (L6): 21100 nM

Cn1/c(=N\N/C=C/c2sc3ccc(Cl)cc3[n+]2C)sc2ccccc21
IC50 (Plasmodium falciparum): 2600 nM | selectivity ratio [1]: 4.2 | IC50 (Trypanosoma cruzi): 11400 nM | selectivity ratio [2]: 1 | IC50 [3]: 2970 nM | selectivity ratio [4]: 3.6 | IC50 (Leishmania donovani): 8340 nM | selectivity ratio [5]: 1.3 | IC50 (L6): 10800 nM

Cn1/c(=N\N/C=C/c2sc3ccc(F)cc3[n+]2C)sc2ccccc21
IC50 (Plasmodium falciparum): 6140 nM | selectivity ratio [1]: 2.5 | IC50 (Trypanosoma cruzi): 11800 nM | selectivity ratio [2]: 1.3 | IC50 [3]: 4450 nM | selectivity ratio [4]: 3.5 | IC50 (Leishmania donovani): 10200 nM | selectivity ratio [5]: 1.5 | IC50 (L6): 15500 nM
